The subject of the test is infection of CD4+ human cells (CD4 expressing Hela P4 cells) by HIV-1. It counts as cell-based. As to conditions: for IC50: FIG. 3; for relative infection inhibition activity within the peptide set: peptides assayed at 100 μg/ml, FIG. 2 / FIG. 6. Here is the method: Biological Activity Results of C2 peptide analogs Cell Infection Inhibition Assay The assay consisted of CD4 expressing Hela P4 cells containing the […] reporter gene placed downstream the HIV-LTR promotor. These cells, were seeded 24 hours prior to viral infection at a density of 5×10^5 […] in 24 well culture plates (TPP model by Beyneix). 50 μL of virus solution prepared from CEM infected cells' supernatant, were incubated for 1 hour with the assayed peptides at the required concentrations, at 4° C. 10 μg of anti CD4 monoclonal antibodies 13B8.2 or Leu3A were used as control. After incubation the virus solution was diluted to a total volume of 1 ml and was added to the Hela P4 cells. The cells were incubated at these conditions for 3 days after which their infection rate was assayed according to the […] activity in the cells extract.
The cells were washed well, harvested and disintegrated in a buffer containing 60 mM Na2HPO4, 40 mM NaH2PO4, 10 mM KCl, 1 mM MgSO4, 50 mM β-mercaptoethanol, 2.5 mM EDTA, 0.125% NP40, 0.125% triton, 20% glycerol, 0.2 mM PMSF and 100 U/ml approtinin. The cells extract was cleaned by centrifuge at 4° C. for 15 min at 13,000 rpm. β-galactosidase activity was determined by incubation of 150 μL of total cell extract at 37° C. for 2 hours in the presence of 6 mM ONPG (O-Nitrophenyl-β-D-galactopyranoside) in a buffer containing 80 mM Na2HPO4, 1 mM β-mercaptoethanol and 10 mMMgCl2, followed by absorption measurement at 410 nm. The β-galactosidase activity was normalized according to the total protein quantity in the assay.
This figure includes, for comparison, the inhibition of the lead peptide C2-1, as determined in the cell infection inhibition assay.

Setting [1] is: average of peptides C2-2 and C2-3, Hela P4 cells, read-out: average IC50 value.

Where two headings read alike, the source gives them in different places. No end group written: not given here.

The term IC50 denotes the concentration needed to halve the response being measured. In the case of `N=C(N)NCCC[C@@H]1NC(=O)CCC(=O)N[C@@H](CCC(N)=O)C(=O)NCC(=O)N[C@@H](CO)C(=O)N[C@@H](Cc2ccccc2)C(=O)N(CC(N)=O)CCNC1=O` [Peptide C2-1], the “relative infection inhibition activity within the peptide set” value is given as “most active”. Under “CD4 expressing Hela P4 cells, several concentrations, read-out: IC50 (infection inhibition)”, the IC50 is 33 µM. `N=C(N)NCCC[C@@H]1NC(=O)CCCC(=O)N[C@@H](CCC(N)=O)C(=O)NCC(=O)N[C@@H](CO)C(=O)N[C@@H](Cc2ccccc2)C(=O)N(CC(N)=O)CCNC1=O` [Peptide C2-2]: the “relative infection inhibition activity within the peptide set” value is given as “most active”. Also, under setting [1], the IC50 turned out to be 81 ± 2 µM. Regarding `N=C(N)NCCC[C@@H]1NC(=O)CCCCC(=O)N[C@@H](CCC(N)=O)C(=O)NCC(=O)N[C@@H](CO)C(=O)N[C@@H](Cc2ccccc2)C(=O)N(CC(N)=O)CCNC1=O` [Peptide C2-3], the “relative infection inhibition activity within the peptide set” value was “most active”. In addition, the IC50 under setting [1] came to 81 ± 2 µM.

Regarding “C3-19: backbone cyclic C3 peptide of Scheme 1 (SEQ ID NO:7) (RQGSGF; also: backbone cyclic) [Peptide C3-19]”, where the note is “C3 peptides, FIG. 6: assayed at 100 μg/ml, mean of 3 assays, text: C3-25 at 100 μM”, the inhibition of infection is 64±12%.

These data come from patent publication US20080312140A1, “Compositions and Methods for Preventing or Treating Hiv Infection” (priority 2005, published 2008).
